Experimental findings from patent US20170305861A1, “HETEROARYL COMPOUNDS COMPRISING NITROGEN AND USE THEREOF” (ImmunoMet Therapeutics, Inc, priority 2016, published 2017) are described below.

Assay [1] has as its system A549 cell lines (lung cancer cell lines). The assay is described as follows: Oxygen Consumption Rate (OCR) of cells, corrected for cell viability (Cyquant). It counts as cell-based. Conditions: Homo sapiens, read-out: OCR IC50. The protocol:
The compounds synthesized by the methods disclosed in the Examples of the present invention have been measured on oxygen consumption rate and extracellular oxidation by the methods disclosed in the Test Examples below.
3×10^3 cells from A549 cell lines (purchased from ATCC-American Type Culture Collection), which are lung cancer cell lines, were placed on XF96 cell culture plates using RPMI1640 medium, and cultured at 37° C. in a 5% CO2 condition for 16 hours or more for attachment.
After 16 hours, the cells were treated with the drug at six different concentrations between 0 μM and 20 μM. After 24 hours, the existing medium was removed, and XF assay medium (15 mM D-Glucose, 15 mM sodium pyruvate, 4 mM L-Glutamine, pH 7.4) was added. The cells were retreated with the drug, and additionally cultured in Prep station at 37° C. in a non-CO2 condition for 1 hour. During the one-hour culture in the Prep station, a sensor cartridge was placed and calibrated for 20 minutes, and a plate with cells was placed to analyze the OCR. After the analysis was completed, XF96 plate was measured for cell viability using Cyquant assay, which measures the amount of intracellular DNA, in the following method. XF assay medium and the drug were removed, and the cells were placed in a cryogenic refrigerator (−80° C.) for at least 4 hours to be frozen. After the plate was made to be at room temperature, a solution where a lysis buffer and fluorescent GR dye were mixed was placed by 200 μL per well. After 20-minute reaction at room temperature, […] was measured between […] to calculate cell viability. A measured value of a well untreated with the drug was converted to 100% by reflecting cell viability to the OCR value. Concentration of a drug which inhibits the OCR value reflecting cell viability by 50% was calculated.

The next assay has as its system SK-MEL-28 cells. Description: Inhibitory effect of cancer cell proliferation, MTT. It counts as cell-based. To be noted: Homo sapiens. The protocol:
The compounds prepared in the above Examples were evaluated for the inhibitory effect of cancer cell proliferation according to the method described in the following Test Example.
SK-MEL-28 cells derived from human melanoma were used, and the concentration (cell growth inhibitory concentration, IC50) at which cell growth was inhibited to 50% was measured using MTT reagent (3-(4,5-dimethylthiazole-2-yl)-2,5-[…] bromide) to confirm the inhibitory effect of cancer cell proliferation of the drugs synthesized in Examples 1 to 84.
First, SK-MEL-28 cells were cultured in 96-well plates at a cell number of about 1,250 in RPMI-1640 medium containing 11.1 mM glucose and 10% calf blood serum or 0.75 mM glucose and 10% calf blood serum, and were cultured for 16 hours. […] After treatment of the compound, MTT was added to the culture medium to confirm living cells and further cultured for 2 hours. The resulting formazane crystal was dissolved using dimethyl sulfoxide, and the absorbance of the solution was measured at 555 nm. After culturing for 72 hours, the number of viable cells in the well plate treated with the compounds synthesized in the Examples relative to the number of cells cultured in the well plate without treatment of the compounds was expressed as cell viability (%) according to each treatment concentration. By using this, a cell viability curve graph was prepared, and the inhibitory effect of cancer cell proliferation was confirmed by calculating the concentration of the compound whose growth was inhibited to 50% (IC50).

Assay [2] relates to RENCA mouse kidney cancer cells. Description: Antitumor effect in mouse kidney cancer cells, subcutaneous RENCA implant in BALB/c mice. It counts as in vivo. Conditions: for volume of tumor: 10 mg/kg intraperitoneally once a day, BALB/c mice. The protocol: RENCA, which are mouse kidney cancer cells, were cultured in RPMI 1640 medium containing 10% FBS and 1% anti-anti at 37° C. and 5% CO2. 8- to 10-week-old BALB/c mice with a body weight range of 18 g to 20 g were subjected to a 7-day acclimation period, and then 1×10^6/0.1 mL of RENCA cells in PBS were subcutaneously implanted on the right side of the backs of the mice. Seven days after implantation, group separation was performed based on the average of tumor volumes when the tumor volumes reached […]. A vehicle control group was intraperitoneally injected with PBS containing 2% DMSO and 2% Tween80, and an Example 62 administration group was intraperitoneally injected at a dose of 10 mg/kg, once a day for 2 weeks. Tumor volume measurements were performed twice weekly using Vemier calipers, and the volume of tumor was calculated by substituting long axis and short axis for 0.5×long axis×short axis^2.

Where [3] appears, read: A549 cells, 24 h drug treatment, OCR value reflecting cell viability.
Setting [4] is: SK-MEL-28, 0.75 mM glucose, 72 hours, MTT, read-out: SK-MEL-28 0.75 mM glucose Cell viability (IC50 μM).
Where [5] appears, read: SK-MEL-28, 11.1 mM glucose, 72 hours, MTT, read-out: SK-MEL-28 11.1 mM glucose Cell viability (IC50 μM).
Where [6] appears, read: SK-MEL-28, 72 h, read-out: SK-MEL-28 0.75 mM glucose Cell viability (IC50 μM).
Setting [7] is: SK-MEL-28, 72 h, read-out: SK-MEL-28 11.1 mM glucose Cell viability (IC50 μM).

Structures are written as SMILES. Where two headings read alike, the source gives them in different places.

The term IC50 denotes the concentration that inhibits the measured activity by half. In the case of `c1cc(C[n+]2ccc(N3CCC3)cc2)cs1` [Example 71, 4-(Azetidin-1-yl)-1-(thiophen-3-ylmethyl)pyridinium bromide], the IC50 in assay [1] (setting [3]) is 3.4 µM; with SK-MEL-28 cells (setting [4]) it was 6.8 µM; in the assay on SK-MEL-28 cells (setting [5]) it was 76.4 µM.
Taken in the same sequence, the figures for `Nc1cc[n+](CC2CC2)cc1` [Example 31, 4-Amino-1-(cyclopropylmethyl)pyridinium chloride] were 4.3 µM, 56.2 µM and 418 µM.
For the compound `CC(C)(C)CNc1cc[n+](Cc2ccccc2)cc1` [Example 61, 1-Benzyl-4-(neopentylamino)pyridinium chloride], the IC50 in assay [1] (setting [3]) worked out at 15.7 µM; with SK-MEL-28 cells (setting [4]) it was 1.5 µM.
As for `Nc1cc[n+](Cc2ccc[se]2)cc1` [Example 76, 4-Amino-1-(selenophen-2-ylmethyl)pyridinium chloride], the IC50 in assay [1] (A549, 24 h) was 1.5 µM; with SK-MEL-28 cells (setting [6]) it was 14.1 µM; in the assay on SK-MEL-28 cells (setting [7]) it was 114 µM.
With `Nc1cc[n+](CC(=O)c2ccccc2)cc1` [Example 26, 4-Amino-1-(2-oxo-2-phenylethyl)pyridinium bromide], the IC50 in assay [1] (setting [3]) stood at 2.4 µM; with SK-MEL-28 cells (setting [4]), 102 µM; in the assay on SK-MEL-28 cells (setting [5]), 194 µM.
Taken in the same sequence, the figures for `CN(C)c1cc[n+](Cc2ccc(Cl)c(Cl)c2)cc1` [Example 38, 1-(3,4-Dichlorobenzyl)-4-(dimethylamino)pyridinium chloride] were 1.1 µM, 1.5 µM and 11.7 µM.
`Br.c1cc(C[n+]2ccc(N3CCCC3)cc2)cs1` [Example 62, 4-(Pyrrolidin-1-yl)-1-(thiophen-3-ylmethyl)pyridinium bromide]: the IC50 came out at 1 µM in assay [1] (setting [3]), 3.1 µM in the assay on SK-MEL-28 cells (setting [4]) and 40.1 µM in the assay on SK-MEL-28 cells (setting [5]). Besides, the volume of tumor was determined as 81 ± 7 mm³ in assay [2] (day 7 post tumor implantation (group separation)); 146 ± 17 mm³ in assay [2] (day 9 post tumor implantation); 227 ± 39 mm³ in assay [2] (day 12 post tumor implantation); 364 ± 68 mm³ in assay [2] (day 14 post tumor implantation); 545 ± 132 mm³ in assay [2] (day 16 post tumor implantation); 775 ± 206 mm³ in assay [2] (day 20 post tumor implantation). For the same compound, the “tumor growth compared with the vehicle control group” value in assay [2] (from the 6th day of administration, 10 mg/kg intraperitoneally once a day for 2 weeks) is on record as “remarkably inhibited tumor growth”.
`c1c[n+](CC2CC2)ccc1N1CCOCC1` [Example 52, 4-Morpholino-1-(cyclopropylmethyl)pyridinium chloride]: the IC50 in assay [1] (setting [3]) was found to be 0.8 µM; in the assay with SK-MEL-28 cells (setting [4]), 40 µM; in the assay on SK-MEL-28 cells (setting [5]), 367 µM.
As to `Nc1cc[n+](CCc2ccccc2Cl)cc1` [Example 11, 4-Amino-1-(2-chlorophenethyl)pyridinium chloride], the IC50 in assay [1] (setting [3]) was 0.7 µM; with SK-MEL-28 cells (setting [4]) it was 11.9 µM; in the assay with SK-MEL-28 cells (setting [5]), 38.5 µM.
Take `c1c[n+](CC2CCCCC2)ccc1N1CCCC1` [Example 57, 1-(Cyclohexylmethyl)-4-(pyrrolidin-1-yl)pyridinium bromide]: the IC50 in assay [1] (setting [3]) worked out at 0.5 µM; in the assay with SK-MEL-28 cells (setting [4]), 1.1 µM; in the assay with SK-MEL-28 cells (setting [5]) it was 23 µM.
For `Nc1cc[n+](CCC2CCCCC2)cc1` [Example 27, 4-Amino-1-(2-cyclohexylethyl)pyridinium bromide], the IC50 in assay [1] (A549, 24 h) amounted to 0.4 µM; in the assay on SK-MEL-28 cells (setting [6]), 1.7 µM; in the assay with SK-MEL-28 cells (setting [7]), 19.5 µM.
Turning to `Nc1cc[n+](CC2CCC2)c(F)c1` [Example 48, 4-Amino-1-(cyclobutylmethyl)-2-fluoropyridinium bromide], the concentration for half-maximal inhibition (IC50) in assay [1] (setting [3]) came out at 0.8 µM; with SK-MEL-28 cells (setting [4]) it was 19.9 µM; in the assay on SK-MEL-28 cells (setting [5]) it was 46.3 µM.
For `Nc1cc[n+](Cc2ccc(Cl)c(Cl)c2)cc1` [Example 36, 4-Amino-1-(3,4-dichlorobenzyl)pyridinium chloride], the results for the IC50 (in assay [1] (setting [3]); with SK-MEL-28 cells (setting [4]); in the assay on SK-MEL-28 cells (setting [5])) were 0.7 µM, 2.8 µM and 13.1 µM, respectively.
